Measurements as given in PMC7914897, “Cytotoxic Potential of a-Azepano- and 3-Amino-3,4-SeCo-Triterpenoids” (International Journal of Molecular Sciences, 2021).

Columns and labels:
HOP-62 (NSC lung cancer) = assay: NCI-60 screen (SRB, 48 h); details: Homo sapiens, HOP-62
CCRF-CEM (Leukemia) = assay: NCI-60 screen (SRB, 48 h); details: Homo sapiens
Breast cancer subpanel = assay: NCI-60 screen, subpanel; details: Homo sapiens
MOLT-4 (Leukemia) = assay: NCI-60 screen (SRB, 48 h); details: Homo sapiens, MOLT-4
SK-MEL-28 (Melanoma) = assay: NCI-60 screen (SRB, 48 h); details: Homo sapiens
OVCAR-5 (Ovarian cancer) = assay: NCI-60 screen (SRB, 48 h); details: Homo sapiens, OVCAR-5
[1] = system: MDA-MB-468 (Breast cancer); assay: cells; details: Homo sapiens
SK-MEL-5 (Melanoma) = assay: NCI-60 screen (SRB, 48 h); details: Homo sapiens
RPMI-8226 (Leukemia) = assay: NCI-60 screen (SRB, 48 h); details: Homo sapiens, RPMI-8226
MCF7 (Breast cancer) = assay: NCI-60 screen (SRB, 48 h); details: Homo sapiens
[2] = system: NCI-H460 (NSC lung cancer); assay: NCI-60 screen (SRB, 48 h); details: Homo sapiens
[3] = system: MDA-MB-31/ATCC (Breast cancer); assay: NCI-60 screen (SRB, 48 h); details: Homo sapiens
SK-OV-3 (Ovarian cancer) = assay: NCI-60 screen (SRB, 48 h); details: Homo sapiens
MDA-MB-435 (Melanoma) = assay: NCI-60 screen (SRB, 48 h); assay type: cell-based
Renal Cancer subpanel = assay: NCI-60 screen, subpanel; details: Homo sapiens
Prostate cancer subpanel = assay: NCI-60 screen, subpanel; details: Homo sapiens
COLO 205 (Colon cancer) = assay: NCI-60 screen (SRB, 48 h); details: Homo sapiens
786-0 (Renal cancer) = assay: NCI-60 screen (SRB, 48 h); details: Homo sapiens
EKVX (NSC lung cancer) = assay: NCI-60 screen (SRB, 48 h); details: Homo sapiens
MALME-3M (Melanoma) = assay: NCI-60 screen (SRB, 48 h); details: Homo sapiens
Leukemia subpanel = assay: cells; details: Homo sapiens
SNB-19 (CNS cancer) = assay: NCI-60 screen (SRB, 48 h); details: Homo sapiens
SK-MEL-2 (Melanoma) = assay: NCI-60 screen (SRB, 48 h); details: Homo sapiens
HCC-2998 (Colon cancer) = assay: NCI-60 screen (SRB, 48 h); details: Homo sapiens, HCC 2998
[4] = system: NCI-H226 (NSC lung cancer); assay: NCI-60 screen (SRB, 48 h); details: Homo sapiens, NCI-H226
Melanoma subpanel = assay: NCI-60 screen, subpanel; details: Homo sapiens
OVCAR-3 (Ovarian cancer) = assay: cells; details: Homo sapiens, OVCAR-3
SNB-75 (CNS cancer) = assay: NCI-60 screen (SRB, 48 h); details: Homo sapiens

Compound `C[C@H]1[C@H](C)CC[C@]2(C(=O)Nc3ccc4ncccc4c3)CC[C@]3(C)C(=CC[C@@H]4[C@@]5(C)CCCNC(C)(C)[C@@H]5CC[C@]43C)[C@H]12` [Compound 14] has a GI50 (HOP-62 (NSC lung cancer)) of 1.76 µM, a GI50 (CCRF-CEM (Leukemia)) of 1.67 µM and an IC (TGI) (Breast cancer subpanel; 48 h, read-out: TGI MG_MID) of 3.44 µM. It also gave a GI50 (Breast cancer subpanel; read-out: GI50 MG_MID) of 1.76 µM, a CC50 (Breast cancer subpanel; read-out: LC50 MG_MID) of 6.87 µM and a GI50 (MOLT-4 (Leukemia)) of 1.42 µM. It also gave a GI50 (SK-MEL-28 (Melanoma); SK-MEL-28) of 1.66 µM, an IC (TGI) (SK-MEL-28 (Melanoma); SK-MEL-28, 48 h, read-out: TGI) of 3.11 µM and a GI50 (OVCAR-5 (Ovarian cancer)) of 1.68 µM. It also gave a GI50 ([1]; MDA-MB-468) of 1.74 µM, an IC (TGI) ([1]; MDA-MB-468, 48 h, read-out: TGI) of 3.45 µM and a CC50 ([1]; MDA-MB-468, read-out: LC50) of 6.87 µM. The GI50 (SK-MEL-5 (Melanoma); SK-MEL-5) was 1.85 µM, the IC (TGI) (SK-MEL-5 (Melanoma); SK-MEL-5, 48 h, read-out: TGI) was 3.32 µM and the CC50 (SK-MEL-5 (Melanoma); SK-MEL-5, read-out: LC50) was 5.94 µM. The GI50 (RPMI-8226 (Leukemia)) was 1.6 µM, the GI50 (MCF7 (Breast cancer); MCF7) was 1.56 µM and the IC (TGI) (MCF7 (Breast cancer); MCF7, 48 h, read-out: TGI) was 3.25 µM. It also gave a GI50 ([2]; NCI-H460) of 1.94 µM, an IC (TGI) ([2]; NCI-H460, 48 h, read-out: TGI) of 3.82 µM and a CC50 ([2]; NCI-H460, read-out: LC50) of 7.53 µM. For the same compound, the GI50 [3] was 1.8 µM, the IC (TGI) ([3]; 48 h, read-out: TGI) was 3.4 µM and the GI50 (SK-OV-3 (Ovarian cancer); SK-OV-3) was 1.77 µM. The IC (TGI) (SK-OV-3 (Ovarian cancer); SK-OV-3, 48 h, read-out: TGI) was 3.27 µM, the GI50 (MDA-MB-435 (Melanoma); Homo sapiens, MDA-MB-435) was 1.58 µM and the IC (TGI) (MDA-MB-435 (Melanoma); Homo sapiens, MDA-MB-435, 48 h, read-out: TGI) was 3 µM. The “Growth % of the Most Sensitive Cell Lines” value (MDA-MB-435 (Melanoma); MDA-MB-435, 1 dose 10 µM) was −91.82%, the IC (TGI) (Renal Cancer subpanel; 48 h, read-out: TGI MG_MID) was 3.24 µM and the GI50 (Renal Cancer subpanel; read-out: GI50 MG_MID) was 1.66 µM. For the same compound, the CC50 (Renal Cancer subpanel; read-out: LC50 MG_MID) was 5.6 µM, the IC (TGI) (Prostate cancer subpanel; 48 h, read-out: TGI MG_MID) was 3.28 µM and the GI50 (Prostate cancer subpanel; read-out: GI50 MG_MID) was 1.76 µM. For the same compound, the GI50 (COLO 205 (Colon cancer); COLO 205) was 1.75 µM, the IC (TGI) (COLO 205 (Colon cancer); COLO 205, 48 h, read-out: TGI) was 3.59 µM and the GI50 (786-0 (Renal cancer); 786-0) was 1.85 µM. It also gave an IC (TGI) (786-0 (Renal cancer); 786-0, 48 h, read-out: TGI) of 3.48 µM, a GI50 (EKVX (NSC lung cancer)) of 1.66 µM and a GI50 (MALME-3M (Melanoma)) of 1.66 µM. The IC (TGI) (Leukemia subpanel; 48 h, read-out: TGI MG_MID) was 3.63 µM, the GI50 (Leukemia subpanel; read-out: GI50 MG_MID) was 1.58 µM and the GI50 (SNB-19 (CNS cancer); SNB-19) was 1.85 µM. For the same compound, the IC (TGI) (SNB-19 (CNS cancer); SNB-19, 48 h, read-out: TGI) was 3.4 µM, the GI50 (SK-MEL-2 (Melanoma); SK-MEL-2) was 1.84 µM and the IC (TGI) (SK-MEL-2 (Melanoma); SK-MEL-2, 48 h, read-out: TGI) was 3.43 µM. For the same compound, the CC50 (SK-MEL-2 (Melanoma); SK-MEL-2, read-out: LC50) was 6.42 µM, the GI50 (HCC-2998 (Colon cancer)) was 1.4 µM and the GI50 [4] was 2.1 µM. For the same compound, the IC (TGI) (Melanoma subpanel; 48 h, read-out: TGI MG_MID) was 3.32 µM, the GI50 (Melanoma subpanel; read-out: GI50 MG_MID) was 1.77 µM and the CC50 (Melanoma subpanel; read-out: LC50 MG_MID) was 6.25 µM. It also gave a GI50 (OVCAR-3 (Ovarian cancer)) of 1.81 µM, a GI50 (SNB-75 (CNS cancer); SNB-75) of 1.52 µM and an IC (TGI) (SNB-75 (CNS cancer); SNB-75, 48 h, read-out: TGI) of 3.09 µM.
